Measurements from patent US11414418B2, “Compounds useful as immunomodulators” (Bristol-Myers Squibb Company, priority 2018, dated 2022).

Target: PD-1/PD-L1 interaction (PD-1-Ig / PD-L1-His) (Homo sapiens (Human), UniProt Q9NZQ7)
Test: PD-1/PD-L1 Homogenous Time-Resolved Fluorescence (HTRF) binding assay
Details: PD-L1-His 10 nM final, PD-1-Ig 20 nM final
Description: The ability of the compounds of formula (I) to bind to PD-L1 was investigated using a PD-1/PD-L1 Homogenous Time-Resolved Fluorescence (HTRF) binding assay.
1. Homogenous Time-Resolved Fluorescence (HTRF) Binding Assay.
The interaction of PD-1 and PD-L1 can be assessed using soluble, purified preparations of the extracellular domains of the two proteins. The PD-1 and PD-L1 protein extracellular domains were expressed as fusion proteins with detection tags, for PD-1, the tag was the Fc portion of Immunoglobulin (PD-1-Ig) and for PD-L1 it was the 6 histidine motif (PD-L1-His). All binding studies were performed in an HTRF assay buffer consisting of dPBS supplemented with 0.1% […] bovine serum albumin and 0.05% (v/v) Tween-20. For the h/PD-L1-His binding assay, inhibitors were pre-incubated with PD-L1-His (10 nM final) for 15 m in 4 μl of assay buffer, followed by addition of PD-1-Ig (20 nM final) in 1 μl of assay buffer and further incubation for 15 m. HTRF detection was achieved using europium crypate-labeled anti-Ig (1 nM final) and allophycocyanin (APC) labeled anti-His (20 nM final). Antibodies were diluted in HTRF detection buffer and 5 μl was dispensed on top of the binding reaction. The reaction mixture was allowed to equilibrate for 30 minutes and the resulting signal (665 nm/620 nm ratio) was obtained using an EnVision fluorometer. Additional binding assays were established between the human proteins PD-1-Ig/PD-L2-His (20 & 5 nM, respectively) and CD80-His/PD-L1-Ig (100 & 10 nM, respectively).
Recombinant Proteins: Human PD-1 (25-167) with a C-terminal human Fc domain of immunoglobulin G (Ig) epitope tag [hPD-1 (25-167)-3S-IG] and human PD-L1 (18-239) with a C-terminal His epitope tag [hPD-L1 (18-239)-TVMV-His] were expressed in HEK293T cells and purified sequentially by ProteinA affinity chromatography and size exclusion chromatography. Human PD-L2-His and CD80-His was obtained through commercial sources.

PD-1/PD-L1 interaction (PD-1-Ig / PD-L1-His), sequence (Q9NZQ7 other isoform, or with tags, fused parts or gaps): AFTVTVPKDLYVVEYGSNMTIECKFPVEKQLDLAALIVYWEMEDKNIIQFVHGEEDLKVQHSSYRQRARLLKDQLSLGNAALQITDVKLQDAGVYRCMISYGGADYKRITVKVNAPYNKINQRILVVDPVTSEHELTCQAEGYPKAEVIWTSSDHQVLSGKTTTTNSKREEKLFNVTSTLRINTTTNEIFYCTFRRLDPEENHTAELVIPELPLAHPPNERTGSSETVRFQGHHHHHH

Row | Compound | IC50 [µM]
1 | C[C@@](CO)(NCc1cc(Cl)c(CCC(=O)N2CCCC3(CCCN(C(=O)CCCN4CC[C@@H](OCc5ccccc5)C4)C3)C2)cc1OCc1cncc(C#N)c1)C(=O)O (stereo partly drawn) [Example 1004, (2S)-2-((4-(3-(8-(4-((R)-3-(benzyloxy)pyrrolidin-1-yl)butanoyl)-2,8-diazaspiro[5.5]undecan-2-yl)-3-oxopropyl)-5-chloro-2-((5-cyanopyridin-3-yl)methoxy)benzyl)amino)-3-hydroxy-2-methylpropanoic acid] | > 10
2 | COC(=O)c1cncc(COc2cc(CCC(=O)N3CCCC4(CCCN(C(=O)CCCN5CC[C@@H](OCc6ccccc6)C5)C4)C3)c(Cl)cc2CN[C@@](C)(CO)C(=O)O)c1 (stereo partly drawn) [Example 1005, (2S)-2-((4-(3-(8-(4-((R)-3-(benzyloxy)pyrrolidin-1-yl)butanoyl)-2,8-diazaspiro[5.5]undecan-2-yl)-3-oxopropyl)-5-chloro-2-((5-(methoxycarbonyl)pyridin-3-yl)methoxy)benzyl)amino)-3-hydroxy-2-methylpropanoic acid] | > 10
3 | C[C@@](CO)(NCc1cc(Cl)c(CCC(=O)N2CCCC3(CCCN(C(=O)CCCN4CC[C@@H](OCc5ccccc5)C4)C3)C2)cc1OCc1cncc(C(N)=O)c1)C(=O)O (stereo partly drawn) [Example 1003, (2S)-2-((4-(3-(8-(4-((R)-3-(benzyloxy)pyrrolidin-1-yl)butanoyl)-2,8-diazaspiro[5.5]undecan-2-yl)-3-oxopropyl)-2-((5-carbamoylpyridin-3-yl)methoxy)-5-chlorobenzyl)amino)-3-hydroxy-2-methylpropanoic acid] | > 10

Continued, values first:

Row | IC50 [µM] | Compound
4 | > 2.5 | O=C(CCCN1CC[C@@H](OCc2ccccc2)C1)N1CCCC2(CCCN(C(=O)CCCN3CC[C@@H](OCc4ccccc4)C3)C2)C1 [Example 1001, 1,1′-(2,8-diazaspiro[5.5]undecane-2,8-diyl)bis(4-((R)-3-(benzyloxy)pyrrolidin-1-yl)butan-1-one)]
5 | 0.84 | O=C(CCCN1CC[C@@H](O)C1)N1CCCC2(CCCN(C(=O)CCCN3CC[C@@H](O)C3)C2)C1 [Example 1002, 1,1′-(2,8-diazaspiro[5.5]undecane-2,8-diyl)bis(4-((R)-3-hydroxypyrrolidin-1-yl)butan-1-one)]
